Assays:
DOHH-2 = assay: Cell Titer Glo viability, Mab A + chemotherapeutic/targeted agent (Example 9); settings: combination with Mab A; DOHH-2 (NHL); 72 hours
Toledo = assay: as above; assay type: cell-based; settings: combination with Mab A; Toledo (NHL); 72 hours
Karpas-422 = assay: as above; assay type: cell-based; settings: combination with Mab A; Karpas-422 (NHL); 72 hours
U-937 [1] = test system: U-937
U-937 [2] = assay: Cell Titer Glo viability, Mab A + chemotherapeutic/targeted agent (Example 9); settings: combination with Mab A; U-937 (NHL); 72 hours
[3] = test system: primary human hepatocytes; assay: as above; assay type: cell-based; settings: 72 hours
WSU-DLCL2 = assay: as above; assay type: cell-based; settings: 72 hours
OCI-LY7 = assay: as above; settings: combination with Mab A; OCI-LY7 (NHL); 72 hours
LOUNH91 = assay: Cell Titer Glo viability, Mab A + chemotherapeutic agent, Bliss synergy (Example 1); assay type: cell-based; settings: combination with anti-DR5 IgM Mab A; LOUNH91, Lung Squamous cell carcinoma; 72 hours
BXPC3 = assay: as above; assay type: cell-based; settings: combination with anti-DR5 IgM Mab A; BXPC3, Pancreas adenocarcinoma; 72 hours
HCT15 = assay: as above; assay type: cell-based; settings: combination with anti-DR5 IgM Mab A; HCT15, Colorectal adenocarcinoma; 72 hours
NCIN87 = assay: as above; assay type: cell-based; settings: combination with anti-DR5 IgM Mab A; NCIN87, Gastric Adenocarcinoma, tubular; 72 hours
UMUC3 = assay: as above; assay type: cell-based; settings: combination with anti-DR5 IgM Mab A; UMUC3, Bladder Transitional Cell Carcinoma; 72 hours
NCIH460 = assay: as above; assay type: cell-based; settings: combination with anti-DR5 IgM Mab A; NCIH460, Lung, Non-small cell; 72 hours
SNU5 = assay: as above; assay type: cell-based; settings: combination with anti-DR5 IgM Mab A; SNU5, Gastric Adenocarcinoma; 72 hours
ASPC1 = assay: as above; assay type: cell-based; settings: combination with anti-DR5 IgM Mab A; ASPC1, Pancreas Ductal adenocarcinoma; 72 hours
HT1080 = assay: as above; assay type: cell-based; settings: combination with anti-DR5 IgM Mab A; HT1080, Connective tissue Fibrosarcoma; 72 hours
NCIH508 = assay: as above; assay type: cell-based; settings: combination with anti-DR5 IgM Mab A; NCIH508, Colorectal Caecum Adenocarcinoma; 72 hours
HT55 = assay: as above; assay type: cell-based; settings: combination with anti-DR5 IgM Mab A; HT55, Colorectal Carcinoma; 72 hours
NCIH2228 = assay: as above; assay type: cell-based; settings: combination with anti-DR5 IgM Mab A; NCIH2228, Lung, Non-small cell; 72 hours
MOLM13 = assay: as above; assay type: cell-based; settings: combination with anti-DR5 IgM Mab A; MOLM13, Blood (Leukemia) Acute myelogenous leukemia; 72 hours
NUGC4 = assay: as above; assay type: cell-based; settings: combination with anti-DR5 IgM Mab A; NUGC4, Gastric Adenocarcinoma; 72 hours
MV411 = assay: as above; assay type: cell-based; settings: combination with anti-DR5 IgM Mab A; MV411, Blood (Leukemia) Acute myelogenous leukemia; 72 hours
[4] = test system: primary human hepatocytes; assay: as above; assay type: cell-based; settings: combination with anti-DR5 IgM Mab A, Liver, 72 hours
PANC1 = assay: as above; assay type: cell-based; settings: combination with anti-DR5 IgM Mab A; PANC1, Pancreas Ductal Adenocarcinoma, exocrine; 72 hours

`COc1ccccc1-c1nccc(COc2ccccc2C[C@H](Oc2ncnc3sc(-c4ccc(F)cc4)c(-c4ccc(OCCN5CCN(C)CC5)c(Cl)c4C)c23)C(=O)O)n1` (atropisomer, axis not shown) [MIK665, MIK665/S-64315] was tested, and the “Average Bliss score” value (DOHH-2) was 3.1, the “Average Bliss score” value (Toledo) was 6.7 and the “Average Bliss score” value (Karpas-422) was 3.7. For the same compound, the “single agent cytotoxicity (cell viability curves)” value (U-937 [1]) was “complete cytotoxicity”, the “Average Bliss score” value (U-937 [2]) was 4.8 and the “cytotoxicity in primary human hepatocytes” value [3] was “causes cytotoxicity”. The “single agent cytotoxicity (cell viability curves)” value (WSU-DLCL2; WSU-DLCL2 cells) was “complete cytotoxicity”, the “Average Bliss score” value (WSU-DLCL2; combination with Mab A, WSU-DLCL2 (NHL)) was 16 and the “Average Bliss score” value (OCI-LY7) was 3.5.

For `COc1cccc2c1C(=O)c1c(O)c3c(c(O)c1C2=O)C[C@@](O)(C(=O)CO)C[C@@H]3O[C@H]1C[C@H](N)[C@H](O)[C@H](C)O1` [doxorubicin, Doxorubicin], the “Average Bliss score” value (LOUNH91) was 12, the “Average Bliss score” value (BXPC3) was 1.5 and the “Average Bliss score” value (HCT15) was 10. The “Average Bliss score” value (NCIN87) was 12, the “Average Bliss score” value (UMUC3) was 8.8 and the “Average Bliss score” value (NCIH460) was 4. For the same compound, the “Average Bliss score” value (SNU5) was 12, the “Average Bliss score” value (ASPC1) was −0.63 and the “Average Bliss score” value (HT1080) was 1.5. The “Average Bliss score” value (NCIH508) was 1.3, the “Average Bliss score” value (HT55) was 1.6 and the “Average Bliss score” value (NCIH2228) was 16. For the same compound, the “Average Bliss score” value (MOLM13) was 5.2, the “Average Bliss score” value (NUGC4) was 8.9 and the “Average Bliss score” value (MV411) was 7.1. The “Average Bliss score” value [4] was 0.94 and the “Average Bliss score” value (PANC1) was 7.3.

From patent US20230174660A1, “USE OF A MULTIMERIC ANTI-DR5 BINDING MOLECULE IN COMBINATION WITH A CANCER THERAPY FOR TREATING CANCER” (IGM Biosciences, Inc., priority 2020, published 2023)
